Measurements taken from patent US20070049564A1 (Wyeth, priority 2005, published 2007).
Converted amounts (≈) assume the structure as drawn. Like-named read-outs stand apart in the source and are kept apart here.

Experiments:
[1] = tested on: E. coli GC 2236; assay: MIC, broth microdilution; conditions: Escherichia coli
Description: Antimicrobial susceptibility testing. The in vitro activities of the antibiotics are determined by the broth microdilution method as recommended by the National Committee for Clinical Laboratory Standards (NCCLS) (1). Mueller-Hinton II broth (MHBII)(BBL Cockeysville, Md.) is the medium employed in the testing procedures. Microtiter plates containing serial dilutions of each antimicrobial agent are inoculated with each organism to yield the appropriate density (10^5 CFU/ml) in a 100 μl final volume. The plates are incubated for 18-22 hours at 35° C. in ambient air. […] Standard Pharmacological Test Procedures
Presented in Tables I-XIII are representative compounds of Formula I which were evaluated against a panel of 40 selected gram-positive and gram-negative bacteria strains by pre-incubation in water, mouse serum or human serum. Representative compounds were first incubated in mouse serum for an hour prior to the in vitro testing against a panel of selected gram-positive and gram-negative bacteria strains. All compounds were also pre-incubated in water for an hour prior to testing as control. Representative compounds of Formula I were incubated in human serum prior to MIC determination.

[2] = tested on: E. coli GC 2231; assay: MIC, broth microdilution; conditions: Escherichia coli
[3] = tested on: E. coli GC 2232; assay: MIC, broth microdilution; conditions: Escherichia coli
[4] = tested on: E. coli GC 2233; assay: MIC, broth microdilution; conditions: Escherichia coli
[5] = tested on: E. coli GC 2234; assay: MIC, broth microdilution; conditions: Escherichia coli
[6] = tested on: E. coli GC 2270; assay: MIC, broth microdilution; conditions: Escherichia coli
[7] = tested on: E. coli GC 2271; assay: MIC, broth microdilution; conditions: Escherichia coli
[8] = tested on: E. coli GC 3226; assay: MIC, broth microdilution; conditions: Escherichia coli
[9] = tested on: E. coli GC 2203; assay: MIC, broth microdilution; conditions: Escherichia coli
[10] = tested on: P. aeruginosa GC 2214; assay: MIC, broth microdilution; conditions: Pseudomonas aeruginosa
[11] = tested on: S. aureus GC 6466; assay: MIC, broth microdilution; conditions: Staphylococcus aureus
[12] = tested on: S. aureus GC 2216; assay: MIC, broth microdilution; conditions: Staphylococcus aureus
[13] = tested on: S. aureus GC 6335; assay: MIC, broth microdilution; conditions: Staphylococcus aureus
[14] = tested on: S. aureus GC 6469; assay: MIC, broth microdilution; conditions: Staphylococcus aureus
[15] = tested on: E. faecalis GC 2265; assay: MIC, broth microdilution; conditions: Enterococcus faecalis
[16] = tested on: E. faecium GC 4556; assay: MIC, broth microdilution; conditions: Enterococcus faecium
[17] = tested on: E. faecium GC 2243; assay: MIC, broth microdilution; conditions: Enterococcus faecium
[18] = tested on: S. pyogenes GC 4563; assay: MIC, broth microdilution; conditions: Streptococcus pyogenes
[19] = tested on: E. coli; assay: Range of MIC for E. coli strains; conditions: Escherichia coli
[20] = tested on: Staph.; assay: Range of MIC for Staph. strains, including MRSA; conditions: Staphylococcus aureus

With `CN(C)c1cc(NC(=O)CN(C(=O)OCOC(=O)CCC2CCCCC2)C(C)(C)C)c(O)c2c1C[C@H]1C[C@H]3[C@H](N(C)C)C(O)=C(C(N)=O)C(=O)[C@@]3(O)C(O)=C1C2=O` [Example 63, ({[(2-{[(5aR,6aS,7S,10aS)-9-(aminocarbonyl)-4,7-bis(dimethylamino)-1,8,10a,11-tetrahydroxy-10,12-dioxo-5,5a,6,6a,7,10,10a,12-octahydrotetracen-2-yl]amino}-2-oxoethyl)(tert-butyl)amino]carbonyl}oxy)methyl 3-cyclohexylpropanoate] the MIC ([1]; GC2236, pre-incubation in human serum) was greater than 64 µg/mL, the MIC ([1]; GC2236, pre-incubation in mouse serum) was 1 µg/mL (≈ 1.25 µM) and the MIC ([1]; GC2236, pre-incubation in water) was greater than 64 µg/mL. The MIC ([2]; GC2231, pre-incubation in human serum) was greater than 64 µg/mL, the MIC ([2]; GC2231, pre-incubation in mouse serum) was 1 µg/mL (≈ 1.25 µM) and the MIC ([2]; GC2231, pre-incubation in water) was greater than 64 µg/mL. The MIC ([3]; GC2232, pre-incubation in human serum) was greater than 64 µg/mL, the MIC ([3]; GC2232, pre-incubation in mouse serum) was 1 µg/mL (≈ 1.25 µM) and the MIC ([3]; GC2232, pre-incubation in water) was greater than 64 µg/mL. It also gave an MIC ([4]; GC2233, pre-incubation in human serum) greater than 64 µg/mL, an MIC ([4]; GC2233, pre-incubation in mouse serum) of 1 µg/mL (≈ 1.25 µM) and an MIC ([4]; GC2233, pre-incubation in water) greater than 64 µg/mL. The MIC ([5]; GC2234, pre-incubation in human serum) was 64 µg/mL (≈ 80.2 µM), the MIC ([5]; GC2234, pre-incubation in mouse serum) was 1 µg/mL (≈ 1.25 µM) and the MIC ([5]; GC2234, pre-incubation in water) was greater than 64 µg/mL. For the same molecule, the MIC ([6]; GC2270, pre-incubation in human serum) was 64 µg/mL (≈ 80.2 µM), the MIC ([6]; GC2270, pre-incubation in mouse serum) was 0.5 µg/mL (≈ 0.627 µM) and the MIC ([6]; GC2270, pre-incubation in water) was greater than 64 µg/mL. It also gave an MIC ([7]; GC2271, pre-incubation in human serum) greater than 64 µg/mL, an MIC ([7]; GC2271, pre-incubation in mouse serum) of 0.5 µg/mL (≈ 0.627 µM) and an MIC ([7]; GC2271, pre-incubation in water) greater than 64 µg/mL. It also gave an MIC ([8]; GC3226, pre-incubation in human serum) greater than 64 µg/mL, an MIC ([8]; GC3226, pre-incubation in mouse serum) of 1 µg/mL (≈ 1.25 µM) and an MIC ([8]; GC3226, pre-incubation in water) greater than 64 µg/mL. The MIC ([9]; GC2203, pre-incubation in human serum) was greater than 64 µg/mL, the MIC ([9]; GC2203, pre-incubation in mouse serum) was 1 µg/mL (≈ 1.25 µM) and the MIC ([9]; GC2203, pre-incubation in water) was greater than 64 µg/mL. For the same molecule, the MIC ([10]; GC2214, pre-incubation in human serum) was greater than 64 µg/mL, the MIC ([10]; GC2214, pre-incubation in mouse serum) was 32 µg/mL (≈ 40.1 µM) and the MIC ([10]; GC2214, pre-incubation in water) was greater than 64 µg/mL. For the same molecule, the MIC ([11]; GC6466, pre-incubation in human serum) was 1 µg/mL (≈ 1.25 µM), the MIC ([11]; GC6466, pre-incubation in mouse serum) was 0.5 µg/mL (≈ 0.627 µM) and the MIC ([11]; GC6466, pre-incubation in water) was 2 µg/mL (≈ 2.51 µM). It also gave an MIC ([12]; GC2216, pre-incubation in human serum) of 1 µg/mL (≈ 1.25 µM), an MIC ([12]; GC2216, pre-incubation in mouse serum) of 1 µg/mL (≈ 1.25 µM) and an MIC ([12]; GC2216, pre-incubation in water) of 4 µg/mL (≈ 5.01 µM). It also gave an MIC ([13]; GC6335, pre-incubation in human serum) of 1 µg/mL (≈ 1.25 µM), an MIC ([13]; GC6335, pre-incubation in mouse serum) of 1 µg/mL (≈ 1.25 µM) and an MIC ([13]; GC6335, pre-incubation in water) of 4 µg/mL (≈ 5.01 µM). For the same molecule, the MIC ([14]; GC6469, pre-incubation in human serum) was 2 µg/mL (≈ 2.51 µM), the MIC ([14]; GC6469, pre-incubation in mouse serum) was 1 µg/mL (≈ 1.25 µM) and the MIC ([14]; GC6469, pre-incubation in water) was 16 µg/mL (≈ 20.1 µM). The MIC ([15]; GC2265, pre-incubation in human serum) was 2 µg/mL (≈ 2.51 µM), the MIC ([15]; GC2265, pre-incubation in mouse serum) was 1 µg/mL (≈ 1.25 µM) and the MIC ([15]; GC2265, pre-incubation in water) was 8 µg/mL (≈ 10 µM). For the same molecule, the MIC ([16]; GC4556, pre-incubation in human serum) was 4 µg/mL (≈ 5.01 µM), the MIC ([16]; GC4556, pre-incubation in mouse serum) was 1 µg/mL (≈ 1.25 µM) and the MIC ([16]; GC4556, pre-incubation in water) was 0.5 µg/mL (≈ 0.627 µM). It also gave an MIC ([17]; GC2243, pre-incubation in human serum) of 0.25 µg/mL (≈ 0.313 µM), an MIC ([17]; GC2243, pre-incubation in mouse serum) of 0.25 µg/mL (≈ 0.313 µM) and an MIC ([17]; GC2243, pre-incubation in water) of 0.5 µg/mL (≈ 0.627 µM). The MIC ([18]; GC4563, pre-incubation in human serum) was 0.12 µg/mL (≈ 0.15 µM), the MIC ([18]; GC4563, pre-incubation in mouse serum) was 0.12 µg/mL (≈ 0.15 µM) and the MIC ([18]; GC4563, pre-incubation in water) was 0.12 µg/mL (≈ 0.15 µM). The MIC ([19]; 20 h, read-out: Range of MIC, E. coli (Mouse Serum)) was 0.5 to 2 µg/mL (≈ 0.627 to 2.51 µM), the MIC ([19]; read-out: Minimum inhibitory concentration (MIC), E. coli (water)) was greater than 64 µg/mL and the MIC ([19]; read-out: Range of MIC, E. coli (Water)) was greater than 64 µg/mL. For the same molecule, the MIC ([20]; MRSA, read-out: Range of MIC, Staph (Mouse Serum)) was 0.5 to 2 µg/mL (≈ 0.627 to 2.51 µM), the MIC ([20]; MRSA, read-out: Range of MIC, Staph (Water)) was 2 to 16 µg/mL (≈ 2.51 to 20.1 µM) and the MIC ([20]; read-out: Minimum inhibitory concentration (MIC), Staph (Human Serum)) was 1 to 4 µg/mL (≈ 1.25 to 5.01 µM). The MIC ([20]; read-out: Minimum inhibitory concentration (MIC), Staph (Water)) was 2 to 16 µg/mL (≈ 2.51 to 20.1 µM).
